Holding throughout (conditions): 0 to 10 scale where 0 is no effect and 10 is complete control
Test [1] has as its system barnyardgrass. As to the kind of experiment: Test A barnyardgrass. It is filed as in vivo, Echinochloa crus-galli. In short, it runs like this: (§1)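 Visual injury score, 0 (no effect) to 10 (complete control), vs untreated controls at ~11 d in greenhouse. Pre: soil drench on sandy loam. Post: spray to runoff, 1–2 leaf stage.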
The test system of test [2] is morningglory. As to the kind of experiment: Test A morningglory. It is filed as in vivo, Ipomoea spp. The method, boiled down: as §1
The test system of test [3] is velvetleaf. As to the kind of experiment: Test A velvetleaf. Type of test: in vivo, Abutilon theophrasti. In short, it runs like this:
as §1

From patent US6737383B1, “Herbicidal oxadiazolidines” (priority 1999, dated 2004) come the findings set out here.

SMILES strings stand for the structures.

For the molecule `CC(C)N(C(=O)n1oc(=O)n(N(C)C)c1=O)c1ccccc1` [Compound 225], the “Plant response rating, Barnyardgrass” value in test [1] (Postemergence, Rate 1000 g/ha) came out at 9; in test [1] (Pre-emergence, Rate 2000 g/ha), 10. Moreover, the “Plant response rating, Morningglory” value in test [2] (Postemergence, Rate 1000 g/ha) is on record as 10; in test [2] (Pre-emergence, Rate 2000 g/ha), 8. Further, the “Plant response rating, Velvetleaf” value in test [3] (Postemergence, Rate 1000 g/ha) is 3; in test [3] (Pre-emergence, Rate 2000 g/ha), 7.
As for `Cc1cccc(Cl)c1-n1c(=O)on(C(=O)N(c2ccc(F)cc2)C(C)C)c1=O` [Compound 53], the “Plant response rating, Barnyardgrass” value worked out at 3 in test [1] (Postemergence, Rate 1000 g/ha) and 8 in test [1] (Pre-emergence, Rate 2000 g/ha). Further, the “Plant response rating, Morningglory” value in test [2] (Postemergence, Rate 1000 g/ha) is given as 0; in test [2] (Pre-emergence, Rate 2000 g/ha), 0. For the same molecule, the “Plant response rating, Velvetleaf” value in test [3] (Postemergence, Rate 1000 g/ha) was 1; in test [3] (Pre-emergence, Rate 2000 g/ha), 0.
